Values after ≈ are worked out from the molar mass of the structure shown.
Key:
Type in all cases: functional
Candida albicans [1] = experiment: Minimum inhibitory concentration against Candida albicans (ATCC 38247) in the absence of serum.
Candida albicans [2] = experiment: Minimum inhibitory concentration against Candida albicans (579a) in the presence of serum
Candida albicans [3] = experiment: Minimum inhibitory concentration against Candida albicans (579a) in the absence of serum.
Candida albicans [4] = experiment: Minimum inhibitory concentration against Candida albicans (ATCC 62376) in the presence of serum
Candida albicans [5] = experiment: Minimum inhibitory concentration against Candida albicans (CCH 442) in the presence of serum
Candida albicans [6] = experiment: Minimum inhibitory concentration against Candida albicans (CCH 442) in the absence of serum.
Candida albicans [7] = experiment: Minimum inhibitory concentration against Candida albicans (ATCC 10231) in the absence of serum.
Candida albicans [8] = experiment: Minimum inhibitory concentration against Candida albicans (ATCC 10231) in the presence of serum
Candida albicans [9] = experiment: Minimum inhibitory concentration against Candida albicans (ATCC 38247) in the presence of serum
Candida albicans [10] = experiment: Minimum inhibitory concentration against Candida albicans (ATCC 62376) in the absence of serum.

Row | MIC (Candida albicans [1]) [µg/mL] | MIC (Candida albicans [2]) [µg/mL] | MIC (Candida albicans [3]) [µg/mL] | MIC (Candida albicans [4]) [µg/mL] | MIC (Candida albicans [5]) [µg/mL] | MIC (Candida albicans [6]) [µg/mL] | MIC (Candida albicans [7]) [µg/mL] | MIC (Candida albicans [8]) [µg/mL] | MIC (Candida albicans [9]) [µg/mL] | MIC (Candida albicans [10]) [µg/mL] | Compound
1 | > 100 | 0.78 | 50 (≈ 48.7 µM) | 3.12 | 1.56 | 50 (≈ 48.7 µM) | 50 (≈ 48.7 µM) | 3.12 | 0.78 | 25 (≈ 24.3 µM) | CCCCC/C=C/C=C/[C@@H](O)C/C=C/C=C/C(=O)O[C@@H]1[C@@H](O)[C@H](c2c(O)cc(O)cc2CO)O[C@H](CO)[C@H]1O[C@@H]1O[C@H](COC(=O)c2ccc3ccccc3c2)[C@H](O)[C@H](O)[C@H]1O[C@@H]1O[C@H](CO)[C@H](O)[C@H](O)[C@H]1O
2 | 100 (≈ 92.8 µM) | 3.12 | 50 (≈ 46.4 µM) | 3.12 | 3.12 | 100 (≈ 92.8 µM) | 50 (≈ 46.4 µM) | 3.12 | 6.25 | 100 (≈ 92.8 µM) | CCCCC/C=C/C=C/[C@@H](O)C/C=C/C=C/C(=O)O[C@@H]1[C@@H](O)[C@H](c2c(O)cc(O)cc2CO)O[C@H](CO)[C@H]1O[C@@H]1O[C@H](COC(=O)c2cc3ccccc3c3ccccc23)[C@H](O)[C@H](O)[C@H]1O[C@@H]1O[C@H](CO)[C@H](O)[C@H](O)[C@H]1O

Reference: ChEMBL document CHEMBL1150522, “Preparation and antifungal activity of fusacandin analogs: C-6 sidechain esters” (1996)
